Measured values taken from US20120095055A1, “HEXAHYDROCYCLOPENTYL[f]INDAZOLE 5-HYDROXYMETHYL ETHANOLS AND DERIVATIVES THEREOF AS SELECTIVE GLUCOCORTICOID RECEPTOR MODULATORS” (Merck Sharp & Dohme, Corp., priority 2009, published 2012).

Target: T1, human GR (Homo sapiens, UniProt P04150)
T1 construct: naturally expresses the human GR; endogenous in cells
T1 sequence (P04150 1-777): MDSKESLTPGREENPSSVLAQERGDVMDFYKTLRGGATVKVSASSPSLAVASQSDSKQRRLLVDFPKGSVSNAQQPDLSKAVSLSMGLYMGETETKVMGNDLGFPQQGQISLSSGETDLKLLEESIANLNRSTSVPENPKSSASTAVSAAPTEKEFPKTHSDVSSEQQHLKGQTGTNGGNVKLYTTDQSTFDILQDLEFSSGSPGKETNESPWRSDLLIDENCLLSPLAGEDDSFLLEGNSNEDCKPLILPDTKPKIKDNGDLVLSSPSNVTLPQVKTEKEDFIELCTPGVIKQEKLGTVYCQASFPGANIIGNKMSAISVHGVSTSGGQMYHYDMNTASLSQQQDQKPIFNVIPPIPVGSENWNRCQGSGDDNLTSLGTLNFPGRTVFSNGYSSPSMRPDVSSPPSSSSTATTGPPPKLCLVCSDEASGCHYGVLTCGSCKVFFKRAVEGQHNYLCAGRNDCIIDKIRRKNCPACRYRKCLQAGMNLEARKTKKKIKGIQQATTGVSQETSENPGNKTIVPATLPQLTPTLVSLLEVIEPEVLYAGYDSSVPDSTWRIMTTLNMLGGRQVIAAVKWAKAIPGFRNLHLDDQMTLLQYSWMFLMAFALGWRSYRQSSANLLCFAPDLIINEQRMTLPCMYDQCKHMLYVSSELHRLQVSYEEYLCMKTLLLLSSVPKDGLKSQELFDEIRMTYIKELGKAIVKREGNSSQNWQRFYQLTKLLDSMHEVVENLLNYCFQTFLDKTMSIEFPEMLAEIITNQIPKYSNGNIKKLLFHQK
Assay: Transrepression Assay (GITAR), TNFα-β-lactamase reporter in U937 cells
Type: cell-based
Details: for Transrepression U937 Cells GITAR Emax (%): activity repressed by 100 nM dexamethasone set as 100%; for EC50: inflection point (IP), TNFα promoter β-lactamase reporter, PMA/LPS; for Emax: U-937, activity repressed by 100 nM dexamethasone set as 100%
Source text: This assay assesses the ability of test compounds to control transcription from the TNFα-β-lactamase reporter gene in U937 cells, a human myelomonocytic leukemia cell line that naturally expresses the human GR. The assay measures compound dependent-repression of the TNFa promoter linked to a reporter gene.
The human U937 cells that had been stablely transfected with the TNF-α promoter driving β-lactamase are used for this assay. U937 cells contain an endogenous glucocorticoid receptor (GR). Cells are maintained in RPMI 1640 Growth medium (Gibco Cat#11875-093) containing 25 mM HEPES, 10% FBS, 2 mM L-Glutamine, 1 mM Sodium pyruvate, 25 μg/ml Gentamicin (Gibco Cat#15710-064), 1:1000 2-Mercaptoethanol (Gibco Cat#21985-023) and 0.8 mg/ml G418 (Gibco Cat#10131-027). The density of the cells in the flask needs to be about 1×106-3×10^6/ml at the time of harvest. Usually, the cells are split to 1.2˜1.4×10^5/ml (1:10) 3 days prior to the assay. 50,000 cells/well are plated in 96 well black-walled plates the day of assay. Test compounds are added 10 μL/well, and cells are incubated at 37° C. for 30˜45 min. For assaying compounds, first dilute 1:10 in DMSO to make 1 mM, then further dilute 1:100 in medium to make 10× stock prior to adding to the cells. Add 50 ng/ml PMA (Sigma, cat# P8139) 10 μL/well to a final concentration 5 ng/ml, and 1 μg/ml LPS (Sigma, cat# L4130) 10 μL/well to a final concentration 100 ng/ml. Incubate cells at 37° C. overnight for ˜18 hr. PMA is stored frozen as 100 μg/ml stock in DMSO. Dilute 1:10 in DMSO for a working stock of 10 μg/ml and store at −20 C. For assaying, dilute the 10 μg/ml working stock 1:200 in medium to make a 10× solution (50 ng/ml). Store frozen LPS at 1 mg/ml in PBS, dilute 1:1000 in medium to make 10× (1 μg/ml) for the assay. Add 6× loading buffer (CCF2-AM) 20 μL/well, and incubate at room temperature for 70˜90 min. […] The activity repressed by 100 nM dexamethasone alone is set as 100% activity.

SMILES | Transrepression U937 Cells GITAR Emax (%) | EC50 [µM] | Emax [%]
COc1cccnc1C(O)C[C@]1(CO)CCC2=Cc3c(cnn3-c3ccc(F)cc3)C[C@@]21C (single isomer, unassigned) [Example 21b] | 91.3 | 0.0187 | 
C[C@]12Cc3cnn(-c4ccc(F)cc4)c3C=C1CC[C@@]2(CO)CC(O)c1ccc(F)cn1 (single isomer, unassigned) [Example 22a] |  | 0.0187 | 90.9
C[C@]12Cc3cnn(-c4ccc(F)cc4)c3C=C1CC[C@@]2(CO)CC(O)c1ccc(F)cn1 (single isomer, unassigned) [Example 22b] | 90.6 | 0.0141 | 
C[C@]12Cc3cnn(-c4ccccc4)c3C=C1CC[C@@]2(CO)CC(O)c1ccccn1 (single isomer, unassigned) [Example 23a] |  | 0.0228 | 82.6
C[C@]12Cc3cnn(-c4ccccc4)c3C=C1CC[C@@]2(CO)CC(O)c1ccccn1 (single isomer, unassigned) [Example 23b] | 83.7 | 0.0496 | 
COc1ccc(C(O)C[C@]2(CO)CCC3=Cc4c(cnn4-c4ccc(F)cc4)C[C@@]32C)nc1 (single isomer, unassigned) [Example 24a] |  | 0.447 | 63
COc1ccc(C(O)C[C@]2(CO)CCC3=Cc4c(cnn4-c4ccc(F)cc4)C[C@@]32C)nc1 (single isomer, unassigned) [Example 24b] | 57.9 | 0.376 | 
CC(O)(C[C@]1(CO)CCC2=Cc3c(cnn3-c3ccc(F)cc3)C[C@@]21C)c1cccnc1 (single isomer, unassigned) [Example 25a] |  | 0.293 | 61.3
CC(O)(C[C@]1(CO)CCC2=Cc3c(cnn3-c3ccc(F)cc3)C[C@@]21C)c1cccnc1 (single isomer, unassigned) [Example 25b] | 69.8 | 0.186 | 
COc1cccnc1C(O)C[C@]1(CO)CCC2=Cc3c(cnn3-c3cccc(F)c3)C[C@@]21C (single isomer, unassigned) [Example 26a] | 82.1 | 0.0808 | 
COc1cccnc1C(O)C[C@]1(CO)CCC2=Cc3c(cnn3-c3cccc(F)c3)C[C@@]21C (single isomer, unassigned) [Example 26b] | 51.8 | 1.51 | 
C[C@]12Cc3cnn(-c4cccc(F)c4)c3C=C1CC[C@@]2(CO)CC(O)c1cccnc1 (single isomer, unassigned) [Example 27a] |  | 0.598 | 64.2
C[C@]12Cc3cnn(-c4cccc(F)c4)c3C=C1CC[C@@]2(CO)CC(O)c1cccnc1 (single isomer, unassigned) [Example 27b] | 71.9 | 0.334 | 
C[C@]12Cc3cnn(-c4ccc(F)cc4)c3C=C1CC[C@@]2(CO)CC(O)C(F)(F)F (single isomer, unassigned) [Example 28a] |  | 0.0543 | 81.2
C[C@]12Cc3cnn(-c4ccc(F)cc4)c3C=C1CC[C@@]2(CO)CC(O)C(F)(F)F (single isomer, unassigned) [Example 28b] | 80.2 | 0.0909 | 
C[C@]12Cc3cnn(-c4ccccc4)c3C=C1CC[C@@]2(CO)CC(O)c1cccnc1 (single isomer, unassigned) [Example 29a] |  | 0.176 | 66.6
C[C@]12Cc3cnn(-c4ccccc4)c3C=C1CC[C@@]2(CO)CC(O)c1cccnc1 (single isomer, unassigned) [Example 29b] | 60.9 | 0.103 | 
C[C@]12Cc3cnn(-c4ccc(F)cc4)c3C=C1CC[C@@]2(CO)CC(O)c1ccccc1F (stereo partly drawn) [Example 4, 1-(2-fluorophenyl)-2-[(4αS,5R)-1-(4-fluorophenyl)-5-(hydroxymethyl)-4α-methyl-1,4,4α,5,6,7-hexahydrocyclopenta[f]indazol-5-yl]ethanol] |  | 0.0282 | 104
C[C@]12Cc3cnn(-c4ccc(F)cc4)c3C=C1CC[C@@]2(CO)CC(O)c1cccc(Cl)c1 (stereo partly drawn) [Example 8, 1-(3-chlorophenyl)-2-[(4αS,5R)-1-(4-fluorophenyl)-5-(hydroxymethyl)-4α-methyl-1,4,4α,5,6,7-hexahydrocyclopenta[f]indazol-5-yl]ethanol] |  | 0.0214 | 89.9
C[C@]12Cc3cnn(-c4ccc(F)cc4)c3C=C1CC[C@@]2(CO)CC(O)c1cc(F)cc(F)c1 (stereo partly drawn) [Example 9, 1-(3,5-difluorophenyl)-2-[(4αS,5R)-1-(4-fluorophenyl)-5-(hydroxymethyl)-4α-methyl-1,4,4α,5,6,7-hexahydrocyclopenta[f]indazol-5-yl]ethanol] |  | 0.0006 | 102
C[C@]12Cc3cnn(-c4ccc(F)cc4)c3C=C1CC[C@@]2(CO)CC1OC(=O)c2ccccc21 (stereo partly drawn) [Example 11, 3-{[(4αS,5R)-1-(4-fluorophenyl)-5-(hydroxymethyl)-4α-methyl-1,4,4α,5,6,7,7a,8-octahydrocyclopenta[f]indazol-5-yl]methyl}-2-benzofuran-1(3H)-one] |  | 0.241 | 84.6
Cc1ccc(C(O)C[C@]2(CO)CCC3=Cc4c(cnn4-c4ccc(F)cc4)C[C@@]32C)nc1 (stereo partly drawn) [Example 16, 2-[(4αS,5R)-1-(4-fluorophenyl)-5-(hydroxymethyl)-4α-methyl-1,4,4α,5,6,7-hexahydrocyclopenta[f]indazol-5-yl]-1-(5-methylpyridin-2-yl)ethanol] |  | 0.0214 | 85.4
